The results in this text go back to patent US20140142155A1, “METHOD OF TREATING THROMBOCYTOPENIA” (GlaxoSmithKline LLC, priority 2008, published 2014).

One data set relates to healthy adult subjects. Description: QT/QTc double-blind placebo- and positive-controlled crossover trial. In kind it is in vivo, human. The conditions noted are these: 400 mg, single oral dose. The method, then: The effects of Promacta® at doses up to 150 mg daily for 5 days (supratherapeutic doses) on the QT/QTc interval was evaluated in a double-blind, randomized, placebo- and positive-controlled (moxifloxacin 400 mg, single oral dose) crossover trial in healthy adult subjects.

The nature of a further data set: Solubility. In kind it is physicochemical.

Regarding `COc1c(N2C[C@@H]3CCCN[C@@H]3C2)c(F)cc2c(=O)c(C(=O)O)cn(C3CC3)c12` [moxifloxacin], the “QTc effect of positive control” value with healthy adult subjects is “significant QTc prolongation”. With `CC1=NN(c2ccc(C)c(C)c2)C(=O)/C1=N\Nc1cccc(-c2cccc(C(=O)O)c2)c1O.NCCO.NCCO` [Eltrombopag olamine, 3′-{(2Z)-2-[1-(3,4-dimethylphenyl)-3-methyl-5-oxo-1,5-dihydro-4H-pyrazol-4-ylidene]hydrazino}-2′-hydroxy-3-biphenylcarboxylic acid-2-aminoethanol (1:2)], the solubility in water entry in “Solubility” is recorded as “sparingly soluble”. Also, in “Solubility” (pH range of 1 to 7.4), the “solubility in aqueous buffer” value is “practically insoluble”.
